{
  "source": "ChEMBL document CHEMBL1139874",
  "about": "“New diphenylacetylenes as probes for positron emission tomographic imaging of amyloid plaques” (J Med Chem, 2007)",
  "key": {"Spleen [1]": {"tested_on": "Spleen", "assay": "Biodistribution in ICR mouse spleen at 5 to 10 uCi, iv after 30 mins", "type": "ADME, organism-based", "settings": "in vivo, 0.5 h"}, "Lung [2]": {"tested_on": "Lung", "assay": "Biodistribution in ICR mouse lung at 5 to 10 uCi, iv after 1 hr", "type": "ADME, organism-based", "settings": "in vivo"}, "Muscle tissue [3]": {"tested_on": "Muscle tissue", "assay": "Biodistribution in ICR mouse muscle at 5 to 10 uCi, iv after 2 hrs", "type": "ADME, organism-based", "settings": "in vivo"}, "Liver [4]": {"tested_on": "Liver", "assay": "Biodistribution in ICR mouse liver at 5 to 10 uCi, iv after 2 hrs", "type": "ADME, organism-based", "settings": "in vivo"}, "Blood [5]": {"tested_on": "Blood", "assay": "Biodistribution in ICR mouse blood at 5 to 10 uCi, iv after 2 mins", "type": "ADME, organism-based", "settings": "in vivo"}, "Brain [6]": {"tested_on": "Brain", "assay": "Biodistribution in ICR mouse brain at 5 to 10 uCi, iv after 2 hrs", "type": "ADME, organism-based", "settings": "in vivo"}, "Blood [7]": {"tested_on": "Blood", "assay": "Biodistribution in ICR mouse blood at 5 to 10 uCi, iv after 2 hrs", "type": "ADME, organism-based", "settings": "in vivo"}, "Brain [8]": {"tested_on": "Brain", "assay": "Biodistribution in ICR mouse brain at 5 to 10 uCi, iv after 1 hr", "type": "ADME, organism-based", "settings": "in vivo"}, "Zone of skin [9]": {"tested_on": "Zone of skin", "assay": "Biodistribution in ICR mouse skin at 5 to 10 uCi, iv after 30 mins", "type": "ADME, organism-based", "settings": "in vivo, 0.5 h"}, "Kidney [10]": {"tested_on": "Kidney", "assay": "Biodistribution in ICR mouse kidney at 5 to 10 uCi, iv after 2 mins", "type": "ADME, organism-based", "settings": "in vivo"}, "Spleen [11]": {"tested_on": "Spleen", "assay": "Biodistribution in ICR mouse spleen at 5 to 10 uCi, iv after 2 mins", "type": "ADME, organism-based", "settings": "in vivo"}, "Heart [12]": {"tested_on": "Heart", "assay": "Biodistribution in ICR mouse heart at 5 to 10 uCi, iv after 30 mins", "type": "ADME, organism-based", "settings": "in vivo, 0.5 h"}, "Bone [13]": {"tested_on": "Bone", "assay": "Biodistribution in ICR mouse bone at 5 to 10 uCi, iv after 30 mins", "type": "ADME, organism-based, Bone element", "settings": "in vivo, 0.5 h"}, "Bone [14]": {"tested_on": "Bone", "assay": "Biodistribution in ICR mouse bone at 5 to 10 uCi, iv after 2 hrs", "type": "ADME, organism-based, Bone element", "settings": "in vivo"}, "Kidney [15]": {"tested_on": "Kidney", "assay": "Biodistribution in ICR mouse kidney at 5 to 10 uCi, iv after 2 hrs", "type": "ADME, organism-based", "settings": "in vivo"}, "Muscle tissue [16]": {"tested_on": "Muscle tissue", "assay": "Biodistribution in ICR mouse muscle at 5 to 10 uCi, iv after 2 mins", "type": "ADME, organism-based", "settings": "in vivo"}, "Muscle tissue [17]": {"tested_on": "Muscle tissue", "assay": "Biodistribution in ICR mouse muscle at 5 to 10 uCi, iv after 1 hr", "type": "ADME, organism-based", "settings": "in vivo"}, "Liver [18]": {"tested_on": "Liver", "assay": "Biodistribution in ICR mouse liver at 5 to 10 uCi, iv after 1 hr", "type": "ADME, organism-based", "settings": "in vivo"}, "Spleen [19]": {"tested_on": "Spleen", "assay": "Biodistribution in ICR mouse spleen at 5 to 10 uCi, iv after 1 hr", "type": "ADME, organism-based", "settings": "in vivo"}, "Lung [20]": {"tested_on": "Lung", "assay": "Biodistribution in ICR mouse lung at 5 to 10 uCi, iv after 2 hrs", "type": "ADME, organism-based", "settings": "in vivo"}, "Muscle tissue [21]": {"tested_on": "Muscle tissue", "assay": "Biodistribution in ICR mouse muscle at 5 to 10 uCi, iv after 30 mins", "type": "ADME, organism-based", "settings": "in vivo, 0.5 h"}, "[22]": {"assay": "Partition coefficient, log P at pH 7.4", "type": "physicochemical", "settings": "octanol/water"}, "Heart [23]": {"tested_on": "Heart", "assay": "Biodistribution in ICR mouse heart at 5 to 10 uCi, iv after 2 hrs", "type": "ADME, organism-based", "settings": "in vivo"}, "Liver [24]": {"tested_on": "Liver", "assay": "Biodistribution in ICR mouse liver at 5 to 10 uCi, iv after 30 mins", "type": "ADME, organism-based", "settings": "in vivo, 0.5 h"}, "Zone of skin [25]": {"tested_on": "Zone of skin", "assay": "Biodistribution in ICR mouse skin at 5 to 10 uCi, iv after 1 hr", "type": "ADME, organism-based", "settings": "in vivo"}, "Heart [26]": {"tested_on": "Heart", "assay": "Biodistribution in ICR mouse heart at 5 to 10 uCi, iv after 2 mins", "type": "ADME, organism-based", "settings": "in vivo"}, "Kidney [27]": {"tested_on": "Kidney", "assay": "Biodistribution in ICR mouse kidney at 5 to 10 uCi, iv after 1 hr", "type": "ADME, organism-based", "settings": "in vivo"}, "Zone of skin [28]": {"tested_on": "Zone of skin", "assay": "Biodistribution in ICR mouse skin at 5 to 10 uCi, iv after 2 mins", "type": "ADME, organism-based", "settings": "in vivo"}, "Spleen [29]": {"tested_on": "Spleen", "assay": "Biodistribution in ICR mouse spleen at 5 to 10 uCi, iv after 2 hrs", "type": "ADME, organism-based", "settings": "in vivo"}, "Brain [30]": {"tested_on": "Brain", "assay": "Biodistribution in ICR mouse brain at 5 to 10 uCi, iv after 30 mins", "type": "ADME, organism-based", "settings": "in vivo, 0.5 h"}, "Bone [31]": {"tested_on": "Bone", "assay": "Biodistribution in ICR mouse bone at 5 to 10 uCi, iv after 2 mins", "type": "ADME, organism-based, Bone element", "settings": "in vivo"}, "Lung [32]": {"tested_on": "Lung", "assay": "Biodistribution in ICR mouse lung at 5 to 10 uCi, iv after 30 mins", "type": "ADME, organism-based", "settings": "in vivo, 0.5 h"}, "Bone [33]": {"tested_on": "Bone", "assay": "Biodistribution in ICR mouse bone at 5 to 10 uCi, iv after 1 hr", "type": "ADME, organism-based, Bone element", "settings": "in vivo"}, "Lung [34]": {"tested_on": "Lung", "assay": "Biodistribution in ICR mouse lung at 5 to 10 uCi, iv after 2 mins", "type": "ADME, organism-based", "settings": "in vivo"}, "Brain [35]": {"tested_on": "Brain", "assay": "Biodistribution in ICR mouse brain at 5 to 10 uCi, iv after 2 mins", "type": "ADME, organism-based", "settings": "in vivo"}, "Liver [36]": {"tested_on": "Liver", "assay": "Biodistribution in ICR mouse liver at 5 to 10 uCi, iv after 2 mins", "type": "ADME, organism-based", "settings": "in vivo"}, "Blood [37]": {"tested_on": "Blood", "assay": "Biodistribution in ICR mouse blood at 5 to 10 uCi, iv after 30 mins", "type": "ADME, organism-based", "settings": "in vivo, 0.5 h"}, "Zone of skin [38]": {"tested_on": "Zone of skin", "assay": "Biodistribution in ICR mouse skin at 5 to 10 uCi, iv after 2 hrs", "type": "ADME, organism-based", "settings": "in vivo"}, "Blood [39]": {"tested_on": "Blood", "assay": "Biodistribution in ICR mouse blood at 5 to 10 uCi, iv after 1 hr", "type": "ADME, organism-based", "settings": "in vivo"}, "Kidney [40]": {"tested_on": "Kidney", "assay": "Biodistribution in ICR mouse kidney at 5 to 10 uCi, iv after 30 mins", "type": "ADME, organism-based", "settings": "in vivo, 0.5 h"}, "Heart [41]": {"tested_on": "Heart", "assay": "Biodistribution in ICR mouse heart at 5 to 10 uCi, iv after 1 hr", "type": "ADME, organism-based", "settings": "in vivo"}},
  "data": [
    {"smiles": "CN(C)c1ccc(C#Cc2ccc(OCCOCC[18F])cc2)cc1", "values": [
      {"measurement": "Drug uptake", "setting": "Spleen [1]", "result": 2.94, "unit": "% ID/g"},
      {"measurement": "Drug uptake", "setting": "Lung [2]", "result": 3.82, "unit": "% ID/g"},
      {"measurement": "Drug uptake", "setting": "Muscle tissue [3]", "result": 1.03, "unit": "% ID/g"},
      {"measurement": "Drug uptake", "setting": "Liver [4]", "result": 8.85, "unit": "% ID/g"},
      {"measurement": "Drug uptake", "setting": "Blood [5]", "result": 7.33, "unit": "% ID/g"},
      {"measurement": "Drug uptake", "setting": "Brain [6]", "result": 1.34, "unit": "% ID/g"},
      {"measurement": "Drug uptake", "setting": "Blood [7]", "result": 5.17, "unit": "% ID/g"},
      {"measurement": "Drug uptake", "setting": "Brain [8]", "result": 2.06, "unit": "% ID/g"},
      {"measurement": "Drug uptake", "setting": "Zone of skin [9]", "result": 2.23, "unit": "% ID/g"},
      {"measurement": "Drug uptake", "setting": "Kidney [10]", "result": 12.9, "unit": "% ID/g"},
      {"measurement": "Drug uptake", "setting": "Spleen [11]", "result": 5.12, "unit": "% ID/g"},
      {"measurement": "Drug uptake", "setting": "Heart [12]", "result": 2.82, "unit": "% ID/g"},
      {"measurement": "Drug uptake", "setting": "Bone [13]", "result": 1.41, "unit": "% ID/g"},
      {"measurement": "Drug uptake", "setting": "Bone [14]", "result": 1.65, "unit": "% ID/g"},
      {"measurement": "Drug uptake", "setting": "Kidney [15]", "result": 4.16, "unit": "% ID/g"},
      {"measurement": "Drug uptake", "setting": "Muscle tissue [16]", "result": 0.91, "unit": "% ID/g"},
      {"measurement": "Drug uptake", "setting": "Muscle tissue [17]", "result": 1.21, "unit": "% ID/g"},
      {"measurement": "Drug uptake", "setting": "Liver [18]", "result": 9.99, "unit": "% ID/g"},
      {"measurement": "Drug uptake", "setting": "Spleen [19]", "result": 2.38, "unit": "% ID/g"},
      {"measurement": "Drug uptake", "setting": "Lung [20]", "result": 3.38, "unit": "% ID/g"},
      {"measurement": "Drug uptake", "setting": "Muscle tissue [21]", "result": 1.38, "unit": "% ID/g"},
      {"measurement": "logD", "setting": "[22]", "result": 3.12},
      {"measurement": "Drug uptake", "setting": "Heart [23]", "result": 2.11, "unit": "% ID/g"},
      {"measurement": "Drug uptake", "setting": "Liver [24]", "result": 11.2, "unit": "% ID/g"},
      {"measurement": "Drug uptake", "setting": "Zone of skin [25]", "result": 1.71, "unit": "% ID/g"},
      {"measurement": "Drug uptake", "setting": "Heart [26]", "result": 10.5, "unit": "% ID/g"},
      {"measurement": "Drug uptake", "setting": "Kidney [27]", "result": 4.79, "unit": "% ID/g"},
      {"measurement": "Drug uptake", "setting": "Zone of skin [28]", "result": 0.85, "unit": "% ID/g"},
      {"measurement": "Drug uptake", "setting": "Spleen [29]", "result": 2.31, "unit": "% ID/g"},
      {"measurement": "Drug uptake", "setting": "Brain [30]", "result": 3.69, "unit": "% ID/g"},
      {"measurement": "Drug uptake", "setting": "Bone [31]", "result": 1.78, "unit": "% ID/g"},
      {"measurement": "Drug uptake", "setting": "Lung [32]", "result": 4.66, "unit": "% ID/g"},
      {"measurement": "Drug uptake", "setting": "Bone [33]", "result": 1.36, "unit": "% ID/g"},
      {"measurement": "Drug uptake", "setting": "Lung [34]", "result": 11.1, "unit": "% ID/g"},
      {"measurement": "Drug uptake", "setting": "Brain [35]", "result": 5.41, "unit": "% ID/g"},
      {"measurement": "Drug uptake", "setting": "Liver [36]", "result": 19.3, "unit": "% ID/g"},
      {"measurement": "Drug uptake", "setting": "Blood [37]", "result": 6.13, "unit": "% ID/g"},
      {"measurement": "Drug uptake", "setting": "Zone of skin [38]", "result": 1.67, "unit": "% ID/g"},
      {"measurement": "Drug uptake", "setting": "Blood [39]", "result": 5.68, "unit": "% ID/g"},
      {"measurement": "Drug uptake", "setting": "Kidney [40]", "result": 4.75, "unit": "% ID/g"},
      {"measurement": "Drug uptake", "setting": "Heart [41]", "result": 2.48, "unit": "% ID/g"}
    ]}
  ]
}
